Tests used:
[1] = molecular target: T1, steroid sulphatase (Homo sapiens, UniProt P08842); settings: cited from earlier work
T1 sequence (P08842 22-583): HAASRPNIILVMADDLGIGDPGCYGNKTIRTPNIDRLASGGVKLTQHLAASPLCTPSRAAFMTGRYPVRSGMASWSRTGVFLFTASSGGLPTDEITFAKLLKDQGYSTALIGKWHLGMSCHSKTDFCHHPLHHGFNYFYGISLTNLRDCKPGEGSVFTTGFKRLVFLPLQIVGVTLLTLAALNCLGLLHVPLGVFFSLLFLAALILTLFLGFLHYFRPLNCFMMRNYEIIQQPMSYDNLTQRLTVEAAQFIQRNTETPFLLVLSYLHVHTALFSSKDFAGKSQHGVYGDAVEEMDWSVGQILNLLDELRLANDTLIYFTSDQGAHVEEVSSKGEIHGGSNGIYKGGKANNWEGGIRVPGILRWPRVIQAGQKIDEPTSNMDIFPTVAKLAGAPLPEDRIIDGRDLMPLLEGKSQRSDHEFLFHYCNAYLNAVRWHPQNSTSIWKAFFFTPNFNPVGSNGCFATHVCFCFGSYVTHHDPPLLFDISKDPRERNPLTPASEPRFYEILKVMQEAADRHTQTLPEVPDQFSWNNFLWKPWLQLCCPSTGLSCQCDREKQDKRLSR

[2] = molecular target: CuZnSOD (UniProt P00442); experiment: Superoxide dismutase (SOD) spectrophotometric XTT assay, Protocol 1; assay type: biochemical; settings: xanthine oxidase/XTT, 24° C., 30 minutes, read-out: IC 50/μM (+/− SEM) SOD Inhibition
Procedure: In this reaction, 3′-{1-[(phenylamino)-carbonyl]-3,4-tetrazolium}-bis(4-methoxy-6-nitro)benzenesulfonic acid hydrate (XTT) is converted to a colourimetric product by the action of superoxide ions (produced by xanthine oxidase (XO) and xanthine). Production of superoxide ions is inhibited by SOD resulting in decreased product. The ability of test compounds to inhibit SOD is measured by their ability to restore production of the coloured product. Reactions were performed in a total volume of 0.1 ml of buffer A (42 mM Na2CO3 (pH 9.4), 0.1 mM xanthine (Sigma), 0.1 mM EDTA, 0.026 mM XTT (Sigma)).
The reaction was incubated at 24° C. for 30 minutes and products determined by measuring absorobance at 470 nm. All determinations were made in duplicate/triplicate.
SOD activity was measured in accordance with Protocol 1.
Initial analyses were performed using test compounds at 100 μM.

[3] = system: uterus; settings: cited from earlier work
[4] = system: STS; experiment: Plate assay, % inhibition; assay type: biochemical
Procedure: (§1) The STS inhibition provided by the compounds was determined in accordance with the placental microsomes assay of Protocol 4 and a plate assay.

[5] = molecular target: T2, steroid sulphatase (STS) (Homo sapiens, UniProt P08842); experiment: Inhibition of steroid sulphatase activity in placental microsomes, Protocol 4; assay type: biochemical; settings: for IC50: placental microsomes; for inhibition at 1 µM: read-out: Placental Microsomes, % inhibition 1 μM; for inhibition at 0.01 µM: read-out: Placental Microsomes, % inhibition 10 nM
T2 sequence (P08842 22-583): T1 sequence (P08842 22-583)
Procedure: Sulphatase-positive human placenta from normal term pregnancies are thoroughly minced with scissors and washed once with cold phosphate buffer (pH 7.4, 50 mM) then resuspended in cold phosphate buffer (5 ml/g tissue). Homogenisation is accomplished with an Ultra-Turrax homogeniser, using three 10 second bursts separated by 2 minute cooling periods in ice. Nuclei and cell debris are removed by centrifuging (4° C.) at 2000 g for 30 minutes and portions (2 ml) of the supernatant are stored at […] The protein concentration of the supernatants is determined by the method of Bradford (Anal. Biochem., 72, 248-254 (1976)).
Incubations (1 ml) are carried out using a protein concentration of […], substrate concentration of […] [6,7-3H]oestrone-3-sulphate (specific activity 60 Ci/mmol from New England Nuclear, Boston, Mass., U.S.A.) and an incubation time of 20 minutes at 37° C. If necessary eight concentrations of compounds are employed: 0 (i.e. control); 0.05 mM; 0.1 mM; 0.2 mM; 0.4 mM; 0.6 mM; 0.8 mM; 1.0 mM. After incubation each sample is cooled and the medium (1 ml) was pipetted into separate tubes containing [14C]oestrone (7×10^3 dpm) (specific activity 97 Ci/mmol from Amersham International Radiochemical Centre, Amersham, U.K.). The mixture is shaken thoroughly for 30 seconds with toluene (5 ml). Experiments have shown that >90% [14C]oestrone and <0.1% [3H]oestrone-3-sulphate is removed from the aqueous phase by this treatment. A portion (2 ml) of the organic phase was removed, evaporated and the 3H and 14C content of the residue determined by scintillation spectrometry. The mass of oestrone-3-sulphate hydrolysed is calculated from the 3H counts obtained (corrected for the volumes of the medium and organic phase used, and for recovery of [14C]oestrone added) and the specific activity of the substrate.
as §1

[6] = system: MCF7, CAL51, CAMA1 and ZR-75-1 breast cancer derived cell lines; experiment: Cell cycle and apoptosis analysis in breast cancer cell lines; assay type: cell-based, human
Procedure: MCF7, CAL51, CAMA1 and ZR-75-1 breast cancer derived cell lines were obtained from ATCC (MCF7, CAMA1, ZR-75-1) or from the Dutrillaux laboratory (CAL51) (22) and maintained in Dulbecco's modified Eagle's medium (DMEM) supplemented with 10% (v/v) fetal calf serum and antibiotics.
DNA content was determined by flow cytometric analysis of propidium iodide stained cells and TdT-mediated dUTP-nick end labelling (TUNEL), respectively, as described (20). The proportion of cells in G2/M phase of the cell cycle was calculated as a proportion of cells with […] DNA content. The proportion of cells with <G1 DNA content was calculated as a percentage of total cells.
To determine the proportion of cells in mitosis, drug treated cells were collected by trypsinisation and cytospins prepared. Cells were fixed in ice cold methanol for 5 minutes, air dried and DNA was stained using propidium iodide (PI) (0.1 mg/ml in phosphate buffered saline (PBS) containing 10% (v/v) newborn calf serum and 0.05% (w/v) sodium azide). Cells were analysed by confocal microscopy using a Zeiss Axiovert 100 M microscope equipped with the LSM 510 confocal system (Zeiss, Jena, Germany).
We examined whether the differential sensitivity of breast cancer cell lines to the growth inhibitory effects of the compounds of the present invention.

[7] = molecular target: T3, DHA-STS (Rattus norvegicus, UniProt P15589); settings: administered either orally or subcutaneously; cited from earlier work
T3 construct: from tissue; host or cells: rat liver (after oral or subcutaneous dosing)
T3 sequence (P15589 20-577): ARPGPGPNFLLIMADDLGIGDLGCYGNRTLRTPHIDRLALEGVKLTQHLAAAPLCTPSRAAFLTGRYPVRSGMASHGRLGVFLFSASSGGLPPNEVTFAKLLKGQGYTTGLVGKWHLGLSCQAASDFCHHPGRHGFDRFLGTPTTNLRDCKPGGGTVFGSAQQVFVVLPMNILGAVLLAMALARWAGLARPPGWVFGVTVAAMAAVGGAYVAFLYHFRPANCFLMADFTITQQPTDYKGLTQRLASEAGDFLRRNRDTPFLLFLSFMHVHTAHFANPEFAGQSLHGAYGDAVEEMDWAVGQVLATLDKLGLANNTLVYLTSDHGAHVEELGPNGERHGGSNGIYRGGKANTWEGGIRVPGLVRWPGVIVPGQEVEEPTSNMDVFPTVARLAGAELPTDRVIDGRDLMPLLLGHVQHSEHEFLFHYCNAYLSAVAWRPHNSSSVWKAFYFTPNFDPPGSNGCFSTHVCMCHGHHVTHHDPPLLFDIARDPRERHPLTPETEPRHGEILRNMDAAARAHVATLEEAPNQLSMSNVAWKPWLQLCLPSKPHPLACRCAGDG

[8] = molecular target: T4, rat liver E1-STS (Rattus norvegicus, UniProt P15589); settings: administered either orally or subcutaneously; cited from earlier work
T4 construct: from tissue; host or cells: rat liver (after oral or subcutaneous dosing)
T4 sequence (P15589 20-577): T3 sequence (P15589 20-577)

SMILES: COc1cc2c(cc1OS(N)(=O)=O)CC[C@@H]1[C@@H]2CC[C@]2(C)C(=O)CC[C@@H]12 [Compound 25, 2-methoxyestrone-3-O-sulphamate]
- potency as a steroid sulphatase inhibitor compared with EMATE [1]: equipotent with EMATE
- IC50 [2]: > 100 µM
- oestrogenicity ([3]; rat, in vivo): devoid of oestrogenicity

SMILES: CSc1cc2c(cc1OS(N)(=O)=O)CCC1C2CC[C@]2(C)C(=O)CCC12 (stereo partly drawn) [Compound 36]
- Plate Assay, % inhibition 0.1 μM [4]: 3%
- Plate Assay, % inhibition 1 μM [4]: 53%
- Plate Assay, % inhibition 10 μM [4]: 55%
- IC50 [5]: 120 nM
- inhibition at 1 µM [5]: 86.9%
- Effect on cell morphology (rounding, detachment) [6]: induced cells to become rounded and detached from the plate/flask

SMILES: CSc1cc2c(cc1OS(N)(=O)=O)CCC1C2CCC2(C)C1CCC2(O)Cc1ccc(C(C)(C)C)cc1 (stereo not drawn) [Compound 32, Sulfamic acid 17-(4-tert-butyl-benzyl)-17-hydroxy-13-methyl-2-methylsulfanyl-7,8,9,11,12,13,14,15,16,17-decahydro-6H-cyclopenta[a]phenanthren-3-yl ester]
- Plate Assay, % inhibition 0.1 μM [4]: <1%
- Plate Assay, % inhibition 1 μM [4]: <1%
- Plate Assay, % inhibition 10 μM [4]: 48%
- inhibition at 1 µM [5]: 81.8%

SMILES: CSc1cc2c(cc1OS(N)(=O)=O)CCC1C2CC[C@@]2(C)C1CC[C@@]2(O)Cc1ccccc1 (stereo in doubt) [Compound 30, Sulfamic acid 17-benzyl-17-hydroxy-13-methyl-2-methylsulfanyl-7,8,9,11,12,13,14, 15,16,17-decahydro-6H-cyclopenta[a]phenanthren-3-yl ester]
- Plate Assay, % inhibition 0.1 μM [4]: <1%
- Plate Assay, % inhibition 1 μM [4]: <1%
- Plate Assay, % inhibition 10 μM [4]: 31%
- IC50 [5]: 44 nM
- inhibition at 0.01 µM [5]: 15.5%
- inhibition at 0.1 µM ([5]; read-out: Placental Microsomes, % inhibition 100 nM): 69.7%
- inhibition at 1 µM [5]: 93%
- inhibition at 10 µM ([5]; read-out: Placental Microsomes, % inhibition 10 μM): 97.4%

SMILES: CCSc1cc2c(cc1OS(N)(=O)=O)CCC1C2CC[C@]2(C)C(=O)CCC12 (stereo partly drawn) [Compound 38]
- Plate Assay, % inhibition 0.1 μM [4]: <1%
- Plate Assay, % inhibition 1 μM [4]: 1%
- Plate Assay, % inhibition 10 μM [4]: 16%
- inhibition at 0.01 µM [5]: < 5%
- inhibition at 1 µM [5]: 66%

SMILES: CC12CCC3c4ccc(OS(N)(=O)=O)cc4CCC3C1CCC2=O (stereo not drawn) [Compound 24, estrone-3-O-sulphamate, reference compound]
- inhibition of rat liver DHA-STS activity [7]: 99%
- inhibition of rat liver E1-STS activity [8]: 99%
- IC50 [2]: > 100 µM
- oral uterotrophic activity in rats relative to estradiol ([3]; oral, rats, higher than that of estradiol): 100 times

Source: patent US7342004B2, “Thioether sulphamate steroids as steroid inhibitors and anti-cancer compounds” (Sterix Ltd., priority 2000, dated 2008)
